Test results reported in ChEMBL document CHEMBL3272348, “Synthesis and pharmacology of 2,9alpha-dimethyl-2'-hydroxy-6,7-benzomorphan” (J Med Chem, 1976).
The source made the active and inactive calls. No cut-off for these calls is given here.

Assays:
[1] = tested on: Mus musculus; assay: Analgesic activity in sc dosed white mouse by hot plate method; type: functional
[2] = tested on: Rhesus monkey; assay: Precipitation of abstinence syndrome of long duration in morphine-dependent monkey assessed as movement within cage; type: ADME, organism-based, Macaca mulatta; details: in vivo
[3] = tested on: Rhesus monkey; assay: Precipitation of abstinence syndrome of long duration in morphine-dependent monkey assessed as irritability; type: ADME, organism-based, Macaca mulatta; details: in vivo
[4] = tested on: Rhesus monkey; assay: Narcotic antagonist activity in morphine-dependent monkey; type: functional, organism-based; details: Macaca mulatta
[5] = tested on: Rhesus monkey; assay: Precipitation of abstinence syndrome of long duration in morphine-dependent monkey assessed as abdominal cramps; type: ADME, organism-based, Macaca mulatta, Abdomen; details: in vivo
[6] = tested on: Rhesus monkey; assay: Precipitation of abstinence syndrome of long duration in morphine-dependent monkey assessed as hyperexcitability; type: ADME, organism-based, Macaca mulatta; details: in vivo

CN1CC[C@]23c4c5ccc(O)c4O[C@H]2[C@@H](O)C=C[C@H]3[C@H]1C5 [MORPHINE]
ED50 [1]: 1.2 mg/kg

CCOC(=O)C1(c2ccccc2)CCN(C)CC1 [MEPERIDINE]
ED50 [1]: 4.5 mg/kg

C[C@@H]1C2Cc3ccc(O)cc3[C@@H]1CCN2C
Activity [2]: Non-toxic | Activity [3]: Toxic | ED50 [1]: 1.1 mg/kg | Activity [4]: Active | Activity [5]: Toxic | Activity [6]: Non-toxic

C[C@H]1C2Cc3ccc(O)cc3[C@@H]1CCN2C
Activity [2]: Non-toxic | Activity [3]: Toxic | ED50 [1]: 4.3 mg/kg | Activity [5]: Toxic | Activity [6]: Non-toxic

CN1CC[C@@H]2CC1Cc1ccc(O)cc12
Activity [4]: Active
